Read-outs that look alike come from different tables or passages of the source.
Assays:
[1] = test system: C. elegans; type: in vivo, Caenorhabditis elegans; details: in vivo
Method: The worms were treated with the small molecules in liquid, with H2O2 (500 μM final concentration) added on day 4 of adulthood, and scored for viability everyday
FUdR was used to block progeny production. The molecules were analyzed in 96-well plates, with 4 wells for each small molecule. Multiple control wells with DMSO (0.2% final concentration) were included. […] Day 1 adults were transferred onto mini-plates, seeded with OP50 bacteria (UV-irradiated, kanamycin-treated) and supplemented with small molecules (˜60 μM final concentration, 0.2% DMSO). Worms were scored every other day. Cumulative survival was analyzed using the STATA software (log-rank test). […] The worms were treated with the small molecules in liquid, with H2O2 (500 μM final concentration) added on day 4 of adulthood, and scored for viability every day.

[2] = Summary score for characterization of 38 core set hits; details: for D = Triple resistant: 2-point score, multiplex resistance (cadmium, MMS, H2O2); for S = Sum of Negative scores: human; for C = H2O2- & Cd-resistant: score, resistance to both H2O2 and cadmium
Method: 38 “core set” small molecules are listed and are assigned a score, based on the result for each individual characterization. From our small molecule screen for H2O2-resistance, we isolated 61 top hits. […] Specifically, a 2-point score was assigned to the most well-known and prominent longevity-related phenotypes, such as multiplex resistance, activation of FOXO3 and/or NRF2, and down-regulation of mTOR. Small molecules were also analyzed for their ability to extend C. elegans' lifespan in 4 to 6 independent trials, and the lifespan score scale is from 0 to 2: 0 for no obvious effects, 1 for lifespan extension observed in 2 trials, 2 for observed in more than 2 trials. Certain molecules appeared to have DNA-damaging effects and/or potential cell-toxicity in cultured human cells, and they receive a negative point.

[3] = test system: WI-38 cells; assay: Propidium iodide (PI) cell-death imaging upon H2O2 stress; type: cell-based, human; details: for Assay 7: H2O2-resistant, at 10 uM, validated by propidium iodide (PI) cell-death imaging: w/H2O2, 3 hrs/4 hrs/5 hrs, YES/NO; for cytotoxicity at 10 µM: Homo sapiens, WI-38
[4] = test system: WI-38 cells; assay: Long-term effects on cell viability (5 days, ATP; morphology, PI imaging); type: cell-based;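 as to Luminescence signal for ATP measurement, day-2 Average: compounds at 10 µM with ATP read daily over 5 days of treatment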;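 as to Luminescence signal for ATP measurement, day-3 Average: compounds at 10 µM with ATP read daily over 5 days of treatment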;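 as to Luminescence signal for ATP measurement, day-4 Average: compounds at 10 µM with ATP read daily over 5 days of treatment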;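 as to Luminescence signal for ATP measurement, day-5 Average: compounds at 10 µM with ATP read daily over 5 days of treatment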
Method: In addition, cell death was scored by PI-imaging on day 2 and day 5 of treatment.
Applicants introduced molecules (at 10 uM final concentration) to WI-38 fibroblasts and then assayed cell viability (through ATP measurement) everyday, during a course of 5 days of continuous treatment. […] Applicants also examined the morphology and scored cell death (propidium iodide staining) for cells treated with the above molecules. Of these 14 molecules, some appeared to cause cell toxicity. […] Despite the observed long-term toxicity, these molecules are still interesting as they may act as anti-tumor agents in vivo, should they have more pronounced cytotoxicity on highly proliferative tumor cells. When cells were incubated with these molecules for ˜24 hrs and then subject to hydrogen peroxide for 3 hrs, these molecules are all protective. […] Some of these small molecules may be toxic by themselves under certain conditions, but by inducing protective mechanisms, they may trigger “hormesis” and therefore protect cells from oxidative stress.

[5] = test system: WI-38 cells; assay: CdCl2 (cadmium) resistance assay; type: cell-based, human; details: for fold induction at 10 µM: Homo sapiens, 12 h, normalized ATP measurement; for Assay 4: H2O2- & Cd-resistant / Assay 2: Cadmium-resistant: YES/NO; for Assay 2: Cadmium-resistant: * indicates partial
How it was run: (§1)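 WI-38 cells were given compounds at five final concentrations (0.25–20 μM) in triplicate, followed by cadmium or MMS for 12 h. For MMS, medium was switched from OptiMEM+10% FBS to serum-free DMEM+2% BSA when compounds were added, 24 h before stressor. Two independent assays were run, analysed by global variance t-test.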

[6] = test system: human dermal fibroblast (HDF) primary cells; assay: H2O2-resistance in primary human dermal fibroblasts; type: cell-based; details: for fold induction at 10 µM: Homo sapiens; for Assay 6: H2O2-resistant, at 10 uM, human dermal fibroblast (HDF) primary cells: YES/NO
[7] = test system: WI-38 cells; assay: MMS resistance assay; type: cell-based, human; details: for fold induction at 10 µM: Homo sapiens, 12 h, normalized ATP measurement; for Assay 5: Triple resistant: H2O2, cadmium and MMS
How it was run: as §1

[8] = H2O2 3 hrs, 10 uM, n = 6, negative control 5.44% ± 0.79%, read-out: Percentage of propidium iodide-positive dead cells (under H2O2 stress treatment), 3 hrs
[9] = pre-treatment at 10 uM, 3.5 hours of H2O2, DMSO control 27.4% ± 6.5%, */**/*** = reduced by one/two/three standard deviations, read-out: Percentage of propidium iodide-positive dead cells (under H2O2 stress treatment), at 10 uM
[10] = WI-38 cells, 10 μM, both stressors
[11] = score in summary of 38 core set hits

SMILES | D = Triple resistant [2] | S = Sum of Negative scores [2] | C = H2O2- & Cd-resistant [2] | Assay 7: H2O2-resistant, at 10 uM, validated by propidium iodide (PI) cell-death imaging ([3]; 10 uM) | cytotoxicity at 10 µM [3, 8] [%] | cytotoxicity at 10 µM [3, 9] [%] | O = Potential toxicity ([4]; human, 5 days, 10 μM) | Q = Potential toxicity ([4]; human, 5 days, 10 μM) | CdCl2-resistant [5] | H2O2- & CdCl2-resistant [5] | CdCl2-resistant ([5]; WI-38 cells, 10 μM) | H2O2- & CdCl2-resistant [5, 10] | Assay 4: H2O2- & Cd-resistant [5] | Assay 2: Cadmium-resistant [5] | A = Cadmium resistant [5, 11] | A = Cadmium resistant ([5]; summary score) | C = H2O2- & Cd-resistant ([5]; summary score) | Assay 6: H2O2-resistant, at 10 uM, human dermal fibroblast (HDF) primary cells [6] | Assay 5: Triple resistant ([7]; YES/NO) | B = MMS resistant [7, 11] | other results
O=[N+]([O-])c1ccccc1S(=O)(=O)Nc1cccc2cccnc12 [Gr-3A] | 0 | 1 | 1 | YES | 5.54 | 12.4 | 0 | 0 | YES | YES | YES | YES | YES | YES | 1 | 1 | 1 | YES | YES | 0 | L = H2O2-resistance in worms [1]: 0; N = H2O2-resistance in woms [1]: 0; Reduction of ATP content after 5 days of continuous incubation ([4]; human, 5 days, 10 μM): more than 40%; fold induction at 10 µM ([5]; Exp. 1, WI-38 cells, read-out: Exp. 1, under Cd2Cl2 stress treatment, at 10 uM (fold change)): 1.93; fold induction at 10 µM ([5]; Exp. 2, WI-38 cells, read-out: Exp. 2, under Cd2Cl2 stress treatment, at 10 uM (fold change)): 1.64; fold induction at 10 µM ([6]; Experiment 1, HDF cells, read-out: Experiment 1, HDF cells (under H2O2 stress treatment), at 10 uM (fold change)): 2.38; fold induction at 10 µM ([6]; Experiment 2, HDF cells, read-out: Experiment 2, HDF cells (under H2O2 stress treatment), at 10 uM (fold change)): 1.67; fold induction at 10 µM ([7]; Exp. 1, WI-38 cells, read-out: Exp. 1, under MMS stress treatment, at 10 uM (fold change)): 1; fold induction at 10 µM ([7]; Exp. 2, WI-38 cells, read-out: Exp. 2, under MMS stress treatment, at 10 uM (fold change)): 0.86; Assay 3: MMS-resistant ([7]; YES/NO, * indicates partial): YES; B = MMS resistant ([7]; summary score): 1; D = Triple resistant ([7]; summary score): 2
Oc1ccccc1-c1noc(-c2ccccc2O)n1 [O27] | 0 | 2 | 1 | YES | 0.55 | 0.5 | 0 | 1 | YES | YES | YES | YES | YES | YES | 1 | 1 | 1 | YES | YES | 0 | cytotoxicity at 10 µM ([3]; H2O2 4 hrs, 10 uM, n = 6, negative control 16.81% ± 1.42%, read-out: Percentage of propidium iodide-positive dead cells (under H2O2 stress treatment), 4 hrs): 0.82%; cytotoxicity at 10 µM ([3]; H2O2 5 hrs, 10 uM, n = 6, negative control 22.50% ± 1.53%, read-out: Percentage of propidium iodide-positive dead cells (under H2O2 stress treatment), 5 hrs): 1.07%; Luminescence signal for ATP measurement, day-1 Average [4]: 431303; Luminescence signal for ATP measurement, day-2 Average [4]: 437195; Luminescence signal for ATP measurement, day-3 Average [4]: 517210; Luminescence signal for ATP measurement, day-4 Average [4]: 634360; Luminescence signal for ATP measurement, day-5 Average [4]: 587798; viability at 10 µM ([4]; Homo sapiens, WI-38, 120 h, read-out: ATP luminescence by day-5 normalized): 57.2%; B = MMS resistant ([7]; summary score): 0; D = Triple resistant ([7]; summary score): 0

— patent US11413278B2, “Compounds and methods for promoting stress resistance” (priority 2015, dated 2022)
